Publication PMC9065678, “BI 1015550 is a PDE4B Inhibitor and a Clinical Drug Candidate for the Oral Treatment of Idiopathic Pulmonary Fibrosis” (Frontiers in Pharmacology, 2022)

What was measured:
PDE4A = molecular target: T1, PDE4A (Homo sapiens, UniProt P27815); assay: Recombinant PDE activity, scintillation proximity assay: PDE4A; type: biochemical; conditions: substrate [3H]cAMP, means from n independent experiments
T1 construct: PDE4A (NG_029594, AA 156–886); made in house; host or cells: SF9 insect cells (baculovirus, Bac-To-Bac, pFastbac)
T1 sequence (P27815 156-886): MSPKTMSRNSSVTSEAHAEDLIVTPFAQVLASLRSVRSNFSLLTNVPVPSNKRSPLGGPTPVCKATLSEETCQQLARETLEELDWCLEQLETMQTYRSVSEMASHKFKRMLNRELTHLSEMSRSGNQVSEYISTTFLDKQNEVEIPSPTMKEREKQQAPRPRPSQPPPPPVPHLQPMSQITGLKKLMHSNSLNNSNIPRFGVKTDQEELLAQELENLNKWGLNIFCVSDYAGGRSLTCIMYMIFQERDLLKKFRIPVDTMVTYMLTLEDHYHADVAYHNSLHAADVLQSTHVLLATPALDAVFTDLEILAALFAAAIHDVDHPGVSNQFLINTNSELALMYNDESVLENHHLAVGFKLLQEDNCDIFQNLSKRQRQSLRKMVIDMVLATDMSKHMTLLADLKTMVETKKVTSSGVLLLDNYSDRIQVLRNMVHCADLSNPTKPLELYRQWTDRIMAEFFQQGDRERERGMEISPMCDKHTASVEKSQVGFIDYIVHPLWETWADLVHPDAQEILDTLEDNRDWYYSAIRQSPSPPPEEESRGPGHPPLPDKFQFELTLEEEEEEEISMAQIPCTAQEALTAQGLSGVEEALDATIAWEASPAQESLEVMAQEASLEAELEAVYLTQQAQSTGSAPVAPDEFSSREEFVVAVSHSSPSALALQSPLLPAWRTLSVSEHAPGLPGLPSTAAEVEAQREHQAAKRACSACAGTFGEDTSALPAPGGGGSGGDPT
Description: (§1) For the preparation of human recombinant PDEs of interest, the Bac-To-Bac baculoviral expression system from Invitrogen (Carlsbad, CA, United States) was used according to the instruction manual. […] The plasmids were transformed into DH10Bac bacteria, SF9 insect cells were transfected with the bacmid DNA, and the resulting baculoviruses were stored and used for further rounds of infections. For protein production, SF9 cells were infected until a cytopathic effect was visible (after about 72 h), the SF9 cells were harvested and broken up by 3 freeze/thaw cycles, and by shearing 10 times through a 0.1 mm cannula using a syringe. […] The Phosphodiesterase Scintillation Proximity Assays (TRKQ7090 for [^3H]cAMP, GE Healthcare Europe GmbH, Chalfont St Giles, United Kingdom, and TRKQ7100 for [^3H]cGMP, Perkin Elmer, Waltham, MA, United States) were performed essentially according to the instruction manual. […] Assay solutions containing recombinant baculoviral-expressed PDE (to give an activity of 5.000–20.000 cpm corresponding to 5–20% of total activity added), 50 mmol/L Tris/HCl pH 7.5, 8.3 mmol/L MgCl2, 1.7 mmol/L EGTA, and 10 µL radiolabeled substrate (0.05 µCi in H2O) were incubated for 1 h at 30°C (final volume 100 μL).

PDE4B = molecular target: T2, PDE4B (Homo sapiens, UniProt Q07343); assay: Recombinant PDE activity, scintillation proximity assay: PDE4B; type: biochemical
T2 construct: PDE4B NG_029038: AA 152–484; made in house; host or cells: SF9 insect cells (baculovirus, Bac-To-Bac, pFastbac)
T2 sequence (Q07343 324-656): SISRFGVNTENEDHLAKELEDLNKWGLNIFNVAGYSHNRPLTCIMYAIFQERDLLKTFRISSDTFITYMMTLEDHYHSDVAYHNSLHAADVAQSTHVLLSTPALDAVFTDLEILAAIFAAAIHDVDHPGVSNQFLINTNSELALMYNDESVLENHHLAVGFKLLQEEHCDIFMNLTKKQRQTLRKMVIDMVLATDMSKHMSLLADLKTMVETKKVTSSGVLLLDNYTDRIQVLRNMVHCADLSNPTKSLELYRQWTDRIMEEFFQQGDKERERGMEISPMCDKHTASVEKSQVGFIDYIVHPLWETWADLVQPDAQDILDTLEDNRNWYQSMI
Description: as §1

PDE9A = molecular target: T3, PDE9A (Homo sapiens, UniProt O76083); assay: Recombinant PDE activity, scintillation proximity assay: PDE9A; type: biochemical; conditions: substrate cGMP
T3 construct: the full-length open reading frames of PDE1C; made in house; host or cells: SF9 insect cells (baculovirus, Bac-To-Bac, pFastbac)
T3 sequence (O76083 whole entry): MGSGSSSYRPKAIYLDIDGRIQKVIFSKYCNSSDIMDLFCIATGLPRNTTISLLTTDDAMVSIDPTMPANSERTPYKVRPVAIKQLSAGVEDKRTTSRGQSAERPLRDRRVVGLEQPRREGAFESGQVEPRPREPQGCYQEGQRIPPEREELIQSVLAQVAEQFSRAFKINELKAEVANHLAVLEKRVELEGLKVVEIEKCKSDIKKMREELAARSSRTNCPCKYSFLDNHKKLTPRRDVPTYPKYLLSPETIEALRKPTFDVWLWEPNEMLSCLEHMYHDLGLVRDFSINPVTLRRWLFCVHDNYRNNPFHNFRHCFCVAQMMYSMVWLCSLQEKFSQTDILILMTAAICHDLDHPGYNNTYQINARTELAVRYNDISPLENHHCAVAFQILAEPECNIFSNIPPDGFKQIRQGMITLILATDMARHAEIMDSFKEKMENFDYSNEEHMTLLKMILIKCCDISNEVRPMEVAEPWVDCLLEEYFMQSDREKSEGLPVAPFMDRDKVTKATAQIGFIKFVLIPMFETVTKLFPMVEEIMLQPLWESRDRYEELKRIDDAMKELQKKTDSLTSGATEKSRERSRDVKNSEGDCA
Description: For the preparation of human recombinant PDEs of interest, the Bac-To-Bac baculoviral expression system from Invitrogen (Carlsbad, CA, United States) was used according to the instruction manual. In short, the full-length open reading frames of PDE1C (National Center for Biotechnology Information Gene-Ref-Seq identifier NG_051183), PDE3A (NG_030033), PDE4A (NG_029594, AA 156–886), PDE4C (NG_029629), PDE7A (NG_029614), and PDE9A (NG_047067) were cloned into the plasmid vector pFastbac. For PDE4B and PDE4D, active site fragments were used (PDE4B NG_029038: AA 152–484, PDE4D NG_027957, AA 79–438). The plasmids were transformed into DH10Bac bacteria, SF9 insect cells were transfected with the bacmid DNA, and the resulting baculoviruses were stored and used for further rounds of infections. […] The protein content was measured and an equal volume of 87% (v/v) glycerol was added prior to freezing at −20°C. […] The reaction was stopped by addition of 50 µL of yttrium silicate scintillation proximity assay beads (17.8 mg/mL, 18 mM zinc sulfate in H2O) and the amount of produced [^3H]AMP/[^3H]GMP associated was determined using a Wallac Microbeta scintillation counter. […]

PDE5 = molecular target: T4, PDE5 (Homo sapiens, UniProt O76074); assay: PDE5 inhibition screen at Eurofins Cerep; type: biochemical; conditions: screened at Eurofins Cerep
T4 construct: Eurofins Cerep

PDE6 = PDE6 inhibition screen at Eurofins Cerep; type: biochemical, bovine; conditions: screened at Eurofins Cerep
IPF-LF cells = assay: bFGF plus IL-1β-induced proliferation of IPF lung fibroblasts (bromodeoxyuridine assay); type: cell-based
Description: Fibroblasts from donors with IPF (IPF-LF) (Asterand, Detroit, MI, United States) were grown in fibroblast basal medium (CC-3131, Lonza Walkersville, Inc., Walkersville, MD, United States) supplemented with FGM-2 SingleQuot Kit Supplements and Growth Factors (CC-4126, Lonza). Cells were grown in a humidified incubator at 37°C and 5% CO2. All assays were performed at passage 7 or 8. For assay set-up, cells were seeded in fibroblast growth medium plus supplements in assay-relevant densities. For TGF-β-stimulated assays, cells were seeded at 4,500 cells per well in 96-well plates. Proliferation assays were performed in 96-well plates at an initial seeding cell density on day 0 of 2,000 cells per well. After 24-h, the cell culture medium was changed to starvation medium (fibroblast basal medium without supplements). After a 24-h starvation period, cells were pre-incubated for 30 min with different concentrations of BI 1015550 plus/minus different concentrations of nintedanib and/or 1 nmol/L PGE2 and stimulated with the assay-relevant stimulus for the indicated time in the presence of the compound.
IPF-LF cells were stimulated with bFGF (20 ng/mL) plus IL-1β (30 pg/mL). After 72 h of stimulation, 10-times concentrated bromodeoxyuridine was added and the cells were incubated for another 18 h (final concentration bromodeoxyuridine 10 μmol/L). Cell proliferation was assessed by bromodeoxyuridine assay (Roche, Mannheim, Germany) according to the instruction manual.

`[O-][S+]1CCc2nc(N3CCC(c4ncc(Cl)cn4)CC3)nc(NC3(CO)CCC3)c21` (centres unmarked) [BI 1015550] was tested. Which IC50 (PDE4A) did it give?
The IC50 was 248 nM.

What about the “Selectivity for inhibition of PDE4B versus PDE4D” value (PDE4B) of the same molecule?
Its value is “roughly 10 fold”.

What about the IC50 (PDE4B; human recombinant active site fragment, substrate [3H]cAMP, means from n independent experiments, read-out: IC50 PDE4B2) of the same molecule?
The IC50 was 10 nM.

What about the IC50 (PDE9A) of the same molecule?
Its IC50 is > 100000 nM.

And the “Inhibition of human PDE5” value (PDE5)?
Its value is “did not inhibit”.

And the “Inhibition of bovine PDE6” value (PDE6)?
Its value is “did not inhibit”.

What about the IC50 (IPF-LF cells; IPF-LF, alone, read-out: IC50 bFGF plus IL-1β-induced cell proliferation) of the same molecule?
Its IC50 is 255 nM.

What about the “Additional inhibitory effects in combination, proliferation assay” value (IPF-LF cells; combination with pirfenidone (100 µmol/L), data not shown) of the same molecule?
The value was “did not yield any additional inhibitory effects”.
